Reference: article PMC11847724 (Neoplasia (New York, N.Y.), 2025)

How the values were obtained:
[1] = Plasma pharmacokinetics of ESK-440 and metabolite CEP-38901; type: in vivo, human
[2] = all tested species ref 9; cited from earlier work

CNC(=O)c1ccccc1Nc1nc(Nc2ccc3c(c2OC)CCC[C@H](N2CCN(CCO)CC2)C3)ncc1Cl [ESK-440]
Robs (observed accumulation ratio = AUCτ on day 15/AUC0-24 on day 1) ([1]; 25 mg/day (N = 3)): 3.3 (0.76)
Robs (observed accumulation ratio = AUCτ on day 15/AUC0-24 on day 1) ([1]; 50 mg/day (N = 3)): 2.2 (1.11)
Robs (observed accumulation ratio = AUCτ on day 15/AUC0-24 on day 1) ([1]; 100 mg/day (N = 3)): 4.2 (3.47)
Robs (observed accumulation ratio = AUCτ on day 15/AUC0-24 on day 1) ([1]; 150 mg/day (N = 3)): 3.1 (0.17)
Robs (observed accumulation ratio = AUCτ on day 15/AUC0-24 on day 1) ([1]; 250 mg/day (N = 4)): 2.9 (0.81)
Robs (observed accumulation ratio = AUCτ on day 15/AUC0-24 on day 1) ([1]; 350 mg/day (N = 4)): 3.3 (0.63)
Robs (observed accumulation ratio = AUCτ on day 15/AUC0-24 on day 1) ([1]; 500 mg/day (N = 4)): 2.4 (0.43)
Robs (observed accumulation ratio = AUCτ on day 15/AUC0-24 on day 1) ([1]; 700 mg/day (N = 5)): 2.2 (0.74)
dose dependence of Cmax and AUC0-24 ([1]; day 1 and day 15, up to 500 mg/day): dose-proportional
half-life ([1]; human, plasma, oral): 9.4 to 20.8 h
AUC ([1]; human, plasma, oral, 25 mg/day): 0.666 µg·h/mL
AUC(0-t) ([1]; human, plasma, oral, 25 mg/day, AUC0-24, Day 1, 25 mg/day (N = 3)): 0.222 µg·h/mL
AUC(0-t) ([1]; human, plasma, oral, 25 mg/day, AUC0-t, Day 1, 25 mg/day (N = 3)): 0.223 µg·h/mL
AUC(0-t) ([1]; human, plasma, oral, 25 mg/day, AUC0-t, Day 15, 25 mg/day (N = 3)): 0.666 µg·h/mL
Cmax ([1]; human, plasma, oral, 25 mg/day, Day 1, 25 mg/day (N = 3)): 0.0207 µg/mL
Cmax ([1]; human, plasma, oral, 25 mg/day, Day 15, 25 mg/day (N = 3)): 0.0367 µg/mL
Tmax ([1]; human, plasma, oral, 25 mg/day, tmax, Day 1, 25 mg/day (N = 3), median (range)): 3 h
Tmax ([1]; human, plasma, oral, 25 mg/day, tmax, Day 15, 25 mg/day (N = 3), median (range)): 3 h
AUC ([1]; human, plasma, oral, 50 mg/day): 0.995 µg·h/mL
AUC(0-t) ([1]; human, plasma, oral, 50 mg/day, AUC0-24, Day 1, 50 mg/day (N = 3)): 0.509 µg·h/mL
AUC(0-t) ([1]; human, plasma, oral, 50 mg/day, AUC0-t, Day 1, 50 mg/day (N = 3)): 0.517 µg·h/mL
AUC(0-t) ([1]; human, plasma, oral, 50 mg/day, AUC0-t, Day 15, 50 mg/day (N = 3)): 1.02 µg·h/mL
Cmax ([1]; human, plasma, oral, 50 mg/day, Day 1, 50 mg/day (N = 3)): 0.0381 µg/mL
Cmax ([1]; human, plasma, oral, 50 mg/day, Day 15, 50 mg/day (N = 3)): 0.0556 µg/mL
Tmax ([1]; human, plasma, oral, 50 mg/day, tmax, Day 1, 50 mg/day (N = 3), median (range)): 3 h
Tmax ([1]; human, plasma, oral, 50 mg/day, tmax, Day 15, 50 mg/day (N = 3), median (range)): 3.9 h
AUC ([1]; human, plasma, oral, 100 mg/day): 5.42 µg·h/mL
AUC(0-t) ([1]; human, plasma, oral, 100 mg/day, AUC0-24, Day 1, 100 mg/day (N = 3)): 1.48 µg·h/mL
AUC(0-t) ([1]; human, plasma, oral, 100 mg/day, AUC0-t, Day 1, 100 mg/day (N = 3)): 1.54 µg·h/mL
AUC(0-t) ([1]; human, plasma, oral, 100 mg/day, AUC0-t, Day 15, 100 mg/day (N = 3)): 5.66 µg·h/mL
Cmax ([1]; human, plasma, oral, 100 mg/day, Day 1, 100 mg/day (N = 3)): 0.0973 µg/mL
Cmax ([1]; human, plasma, oral, 100 mg/day, Day 15, 100 mg/day (N = 3)): 0.273 µg/mL
Tmax ([1]; human, plasma, oral, 100 mg/day, tmax, Day 1, 100 mg/day (N = 3), median (range)): 2 h
Tmax ([1]; human, plasma, oral, 100 mg/day, tmax, Day 15, 100 mg/day (N = 3), median (range)): 4 h
AUC ([1]; human, plasma, oral, 150 mg/day): 4.98 µg·h/mL
AUC(0-t) ([1]; human, plasma, oral, 150 mg/day, AUC0-24, Day 1, 150 mg/day (N = 3)): 1.58 µg·h/mL
AUC(0-t) ([1]; human, plasma, oral, 150 mg/day, AUC0-t, Day 1, 150 mg/day (N = 3)): 1.56 µg·h/mL
AUC(0-t) ([1]; human, plasma, oral, 150 mg/day, AUC0-t, Day 15, 150 mg/day (N = 3)): 4.95 µg·h/mL
Cmax ([1]; human, plasma, oral, 150 mg/day, Day 1, 150 mg/day (N = 3)): 0.128 µg/mL
Cmax ([1]; human, plasma, oral, 150 mg/day, Day 15, 150 mg/day (N = 3)): 0.321 µg/mL
Tmax ([1]; human, plasma, oral, 150 mg/day, tmax, Day 1, 150 mg/day (N = 3), median (range)): 3.1 h
Tmax ([1]; human, plasma, oral, 150 mg/day, tmax, Day 15, 150 mg/day (N = 3), median (range)): 2.1 h
AUC ([1]; human, plasma, oral, 250 mg/day): 13.3 µg·h/mL
AUC(0-t) ([1]; human, plasma, oral, 250 mg/day, AUC0-24, Day 1, 250 mg/day (N = 4)): 4.74 µg·h/mL
AUC(0-t) ([1]; human, plasma, oral, 250 mg/day, AUC0-t, Day 1, 250 mg/day (N = 4)): 4.85 µg·h/mL
AUC(0-t) ([1]; human, plasma, oral, 250 mg/day, AUC0-t, Day 15, 250 mg/day (N = 4)): 14.2 µg·h/mL
Cmax ([1]; human, plasma, oral, 250 mg/day, Day 1, 250 mg/day (N = 4)): 0.435 µg/mL
Cmax ([1]; human, plasma, oral, 250 mg/day, Day 15, 250 mg/day (N = 4)): 0.732 µg/mL
Tmax ([1]; human, plasma, oral, 250 mg/day, tmax, Day 1, 250 mg/day (N = 4), median (range)): 3.5 h
Tmax ([1]; human, plasma, oral, 250 mg/day, tmax, Day 15, 250 mg/day (N = 4), median (range)): 3.5 h
AUC ([1]; human, plasma, oral, 350 mg/day): 16.8 µg·h/mL
AUC(0-t) ([1]; human, plasma, oral, 350 mg/day, AUC0-24, Day 1, 350 mg/day (N = 4)): 5.18 µg·h/mL
AUC(0-t) ([1]; human, plasma, oral, 350 mg/day, AUC0-t, Day 1, 350 mg/day (N = 4)): 5.32 µg·h/mL
AUC(0-t) ([1]; human, plasma, oral, 350 mg/day, AUC0-t, Day 15, 350 mg/day (N = 4)): 17.9 µg·h/mL
Cmax ([1]; human, plasma, oral, 350 mg/day, Day 1, 350 mg/day (N = 4)): 0.334 µg/mL
Cmax ([1]; human, plasma, oral, 350 mg/day, Day 15, 350 mg/day (N = 4)): 0.869 µg/mL
Tmax ([1]; human, plasma, oral, 350 mg/day, tmax, Day 1, 350 mg/day (N = 4), median (range)): 5 h
Tmax ([1]; human, plasma, oral, 350 mg/day, tmax, Day 15, 350 mg/day (N = 4), median (range)): 4 h
AUC ([1]; human, plasma, oral, 500 mg/day): 36.5 µg·h/mL
AUC(0-t) ([1]; human, plasma, oral, 500 mg/day, AUC0-24, Day 1, 500 mg/day (N = 5)): 17.7 µg·h/mL
AUC(0-t) ([1]; human, plasma, oral, 500 mg/day, AUC0-t, Day 1, 500 mg/day (N = 5)): 17.8 µg·h/mL
AUC(0-t) ([1]; human, plasma, oral, 500 mg/day, AUC0-t, Day 15, 500 mg/day (N = 4)): 37.6 µg·h/mL
Cmax ([1]; human, plasma, oral, 500 mg/day, Day 1, 500 mg/day (N = 5)): 1.16 µg/mL
Cmax ([1]; human, plasma, oral, 500 mg/day, Day 15, 500 mg/day (N = 4)): 1.91 µg/mL
Tmax ([1]; human, plasma, oral, 500 mg/day, tmax, Day 1, 500 mg/day (N = 5), median (range)): 4.1 h
Tmax ([1]; human, plasma, oral, 500 mg/day, tmax, Day 15, 500 mg/day (N = 4), median (range)): 6.8 h
AUC ([1]; human, plasma, oral, 700 mg/day): 25.7 µg·h/mL
AUC(0-t) ([1]; human, plasma, oral, 700 mg/day, AUC0-24, Day 1, 700 mg/day (N = 5)): 11.3 µg·h/mL
AUC(0-t) ([1]; human, plasma, oral, 700 mg/day, AUC0-t, Day 1, 700 mg/day (N = 5)): 11.5 µg·h/mL
AUC(0-t) ([1]; human, plasma, oral, 700 mg/day, AUC0-t, Day 15, 700 mg/day (N = 5)): 25.9 µg·h/mL
Cmax ([1]; human, plasma, oral, 700 mg/day, Day 1, 700 mg/day (N = 5)): 0.839 µg/mL
Cmax ([1]; human, plasma, oral, 700 mg/day, Day 15, 700 mg/day (N = 5)): 1.31 µg/mL
Tmax ([1]; human, plasma, oral, 700 mg/day, tmax, Day 1, 700 mg/day (N = 5), median (range)): 4 h
Tmax ([1]; human, plasma, oral, 700 mg/day, tmax, Day 15, 700 mg/day (N = 5), median (range)): 6.1 h
Tmax ([1]; human, plasma, oral, median tmax, range across dose levels, day 1): 2 to 5 h
Tmax ([1]; human, plasma, oral, median tmax, range across dose levels, day 15): 2.1 to 6.8 h
oral bioavailability [2]: acceptable
